Test results reported in patent US11400019B2, “Sustained release drug delivery systems with reduced impurities and related methods” (DURECT CORPORATION, priority 2020, dated 2022).
Counter-ions that a name gives are not always drawn. Like-named read-outs stand apart in the source and are kept apart here.

Experiments:
[1] = Example 13 trial: total and free bupivacaine plasma pharmacokinetics; details: human, in vivo
Procedure: Additionally, alpha 1 acid glycoprotein (AAG) plasma concentrations were measured in these two groups for correlation with free bupivacaine concentrations.
Using non-compartmental methods the following PK parameters were calculated from the plasma concentrations of each compound: area under the plasma concentration vs. time curve until the last measured concentration (AUCt), area under the plasma concentration vs. time curve extrapolated until infinity (AUCinf), the maximum concentration (Cmax), the time of its occurrence (tmax) and the apparent terminal elimination half-life (t1/2). […] The average […] of bupivacaine was approximately […]; free bupivacaine plasma concentrations generally paralleled those of total bupivacaine. There was a large interindividual variability of Cmax of both total and free bupivacaine. […] Note: Table 13.5 presents Geometric mean, ±68th percentile for Cmax rather than absolute min, max.

[2] = Example 17 trial: plasma total bupivacaine pharmacokinetics; assay type: in vivo; details: human
Procedure: Plasma PK samples were analyzed for determination of total bupivacaine concentration only and none of the samples were analyzed for determination of free drug concentration.

For `CCCCN1CCCCC1C(=O)Nc1c(C)cccc1C` (stereo not drawn) [bupivacaine HCl, bupivacaine hydrochloride], the Tmax [1] was 1.03 h, the “t1/2, mean” value [1] was 6.65 h and the tmax median [1] was 1.03 h. It also gave a half-life ([1]; t1/2, mean) of 5.93 h, a Cmax ([2]; Cohort 1) of 251 ng/mL and an AUC(0-t) ([2]; Cohort 1, read-out: AUC(0-72), mean) of 8460 ng·h/mL. It also gave an AUC(0-t) ([2]; Cohort 1, read-out: AUC(0-last), mean) of 7780 ng·h/mL, a Tmax ([2]; Cohort 1, read-out: Tmax, median) of 16 h and a Cmax ([2]; Cohort 2) of 371 ng/mL. The AUC(0-t) ([2]; Cohort 2, read-out: AUC(0-72), mean) was 6770 ng·h/mL, the AUC(0-t) ([2]; Cohort 2, read-out: AUC(0-last), mean) was 6620 ng·h/mL and the Tmax ([2]; Cohort 2, read-out: Tmax, median) was 1 h.
